The source of these data is publication PMC3878625, “Inhibitory effects of grape skin extract and resveratrol on fatty acid synthase” (BMC Complementary and Alternative Medicine, 2013).

For this experiment, the target named is T1, Fatty acid synthase (FAS) (Gallus gallus, UniProt P12276).
T1 construct: gene FASN; FAS purified from chicken liver
Kind of experiment: spectrophotometric NADPH oxidation assay ([…] nm) of purified FAS, overall and KR reactions; time-dependent inhibition and Lineweaver-Burk kinetics. Format: biochemical.

The IC50 is the point on the concentration scale where inhibition reaches its midpoint. Lower therefore signals greater potency.

T1 sequence (P12276 2-2512): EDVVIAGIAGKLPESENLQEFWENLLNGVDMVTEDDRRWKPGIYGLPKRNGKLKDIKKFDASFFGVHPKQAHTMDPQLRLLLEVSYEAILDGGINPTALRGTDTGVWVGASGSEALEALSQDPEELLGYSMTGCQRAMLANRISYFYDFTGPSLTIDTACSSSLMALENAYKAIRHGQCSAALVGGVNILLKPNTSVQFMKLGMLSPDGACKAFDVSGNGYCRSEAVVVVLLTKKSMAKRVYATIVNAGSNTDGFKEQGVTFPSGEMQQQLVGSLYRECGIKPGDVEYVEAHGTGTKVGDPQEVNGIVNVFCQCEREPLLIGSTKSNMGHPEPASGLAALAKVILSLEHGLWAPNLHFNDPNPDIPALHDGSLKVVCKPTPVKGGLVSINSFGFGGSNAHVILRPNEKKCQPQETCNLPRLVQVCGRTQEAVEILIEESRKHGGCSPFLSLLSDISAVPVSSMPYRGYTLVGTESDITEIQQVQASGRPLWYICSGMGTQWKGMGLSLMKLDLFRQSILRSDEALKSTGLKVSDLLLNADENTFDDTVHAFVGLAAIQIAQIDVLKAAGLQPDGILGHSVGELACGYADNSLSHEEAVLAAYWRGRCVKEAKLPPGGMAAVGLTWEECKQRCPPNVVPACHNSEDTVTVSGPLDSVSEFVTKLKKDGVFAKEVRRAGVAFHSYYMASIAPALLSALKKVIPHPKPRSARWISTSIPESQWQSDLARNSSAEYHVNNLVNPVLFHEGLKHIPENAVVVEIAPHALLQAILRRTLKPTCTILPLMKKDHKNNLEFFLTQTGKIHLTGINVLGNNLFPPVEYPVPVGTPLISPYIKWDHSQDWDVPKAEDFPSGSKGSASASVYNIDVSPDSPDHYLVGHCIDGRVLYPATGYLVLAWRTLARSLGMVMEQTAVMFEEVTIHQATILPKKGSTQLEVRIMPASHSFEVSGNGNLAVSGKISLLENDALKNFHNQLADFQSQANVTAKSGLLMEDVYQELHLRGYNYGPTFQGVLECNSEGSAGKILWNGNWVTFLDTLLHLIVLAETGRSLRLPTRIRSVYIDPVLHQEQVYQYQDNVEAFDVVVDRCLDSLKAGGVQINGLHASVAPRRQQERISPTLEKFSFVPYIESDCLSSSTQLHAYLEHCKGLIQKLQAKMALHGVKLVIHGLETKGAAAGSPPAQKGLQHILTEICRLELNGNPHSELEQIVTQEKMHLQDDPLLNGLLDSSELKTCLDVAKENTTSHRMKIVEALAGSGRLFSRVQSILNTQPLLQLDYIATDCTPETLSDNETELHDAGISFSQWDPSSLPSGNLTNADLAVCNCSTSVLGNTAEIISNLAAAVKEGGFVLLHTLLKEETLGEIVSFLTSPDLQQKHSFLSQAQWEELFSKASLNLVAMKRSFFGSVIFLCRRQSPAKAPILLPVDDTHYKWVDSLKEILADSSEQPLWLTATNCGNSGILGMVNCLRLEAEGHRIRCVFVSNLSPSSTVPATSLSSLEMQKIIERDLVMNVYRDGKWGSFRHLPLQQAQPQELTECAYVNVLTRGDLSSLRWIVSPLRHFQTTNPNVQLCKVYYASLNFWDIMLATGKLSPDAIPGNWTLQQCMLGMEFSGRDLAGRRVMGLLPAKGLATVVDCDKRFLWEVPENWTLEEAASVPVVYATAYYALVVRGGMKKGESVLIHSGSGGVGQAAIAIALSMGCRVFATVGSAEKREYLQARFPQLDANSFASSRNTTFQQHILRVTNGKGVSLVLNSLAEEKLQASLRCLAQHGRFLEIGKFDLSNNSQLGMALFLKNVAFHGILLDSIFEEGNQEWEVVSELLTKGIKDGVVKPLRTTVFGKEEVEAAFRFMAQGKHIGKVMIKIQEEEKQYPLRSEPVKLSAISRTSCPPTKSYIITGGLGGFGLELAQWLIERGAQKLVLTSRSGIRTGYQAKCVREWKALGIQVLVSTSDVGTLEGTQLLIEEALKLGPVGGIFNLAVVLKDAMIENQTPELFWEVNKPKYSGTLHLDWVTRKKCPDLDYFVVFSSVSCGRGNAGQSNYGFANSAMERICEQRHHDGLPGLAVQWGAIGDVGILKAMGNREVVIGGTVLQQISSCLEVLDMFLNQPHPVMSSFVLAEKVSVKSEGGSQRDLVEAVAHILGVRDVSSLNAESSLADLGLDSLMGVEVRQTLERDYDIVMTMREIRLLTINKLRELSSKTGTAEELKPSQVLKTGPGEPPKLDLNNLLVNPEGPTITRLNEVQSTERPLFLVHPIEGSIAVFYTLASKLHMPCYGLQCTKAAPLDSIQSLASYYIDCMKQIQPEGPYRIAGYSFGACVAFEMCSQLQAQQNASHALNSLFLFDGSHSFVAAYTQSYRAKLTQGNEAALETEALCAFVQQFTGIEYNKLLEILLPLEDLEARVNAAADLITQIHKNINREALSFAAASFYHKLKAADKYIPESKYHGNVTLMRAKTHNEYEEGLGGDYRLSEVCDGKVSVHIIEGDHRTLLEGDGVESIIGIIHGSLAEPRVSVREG

For `Oc1ccc(/C=C/c2cc(O)cc(O)c2)cc1` [resveratrol, 3,5,4′-trihydroxystilbene], the IC50 is 48.6 µM.
